In assay [1] the target is T1, hA1AR (Homo sapiens, UniProt P30542).
T1 sequence (P30542 1-326): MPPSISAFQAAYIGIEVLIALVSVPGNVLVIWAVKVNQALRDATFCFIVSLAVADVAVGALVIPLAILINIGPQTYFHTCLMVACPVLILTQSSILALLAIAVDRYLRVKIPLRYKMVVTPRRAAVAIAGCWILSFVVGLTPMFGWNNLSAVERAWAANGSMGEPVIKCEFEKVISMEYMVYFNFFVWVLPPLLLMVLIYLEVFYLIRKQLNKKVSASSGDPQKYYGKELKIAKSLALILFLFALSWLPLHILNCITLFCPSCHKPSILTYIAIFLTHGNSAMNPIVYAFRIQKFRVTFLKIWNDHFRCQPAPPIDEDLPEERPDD
As to conditions: saturation on hA1AR; cited from earlier work.

Assay [2] concerns the target T1, hA1AR. Conditions: saturation on CHO-hA1AR membranes, M/IS.
Protocol: Dilutions were prepared with a HP D300 Digital Dispenser (Tecan Group, Männerdorf, Swiss) from DMSO stocks.
Assay [3] addresses T1, hA1AR. Nature of the assay: biochemical. As to conditions: K i ± SEM, MS binding, 6 nM DPCPX marker, overall (one-state) value.
Protocol: (§3) Ligand displacement experiments were performed using nine concentrations of competing ligand.
The target in assay [4] is T1, hA1AR. Nature of the assay: Radioligand binding competition association assay. Also noted: expressed in transfected cells; host or cells: CHO cells stably expressing hA1AR (membrane preparation); gift from Prof; S. Hill, University of Nottingham. As to conditions: newly acquired. The protocol: (§1) The reference radioligand binding data were published before by our lab or were acquired as described before.
(§2) For the validation of MS binding assays, radioligand binding data that was published previously by our group was used. In the case that no in-house radioligand binding data was available, the concerning assays were performed following previously established protocols.

For assay [5], the target named is T1, hA1AR. In words: biochemical. As to conditions: K i ± SEM, Radioligand binding, overall (one-state) value, newly acquired. The protocol: as §1, §2
The target of assay [6] is T1, hA1AR. In words: MS binding competition association assay (marker ligand DPCPX). Also noted: expressed in transfected cells; host or cells: CHO cells stably expressing hA1AR (membrane preparation); gift from Prof; S. Hill, University of Nottingham. As to conditions: for shape of competition association curve: 6 nM DPCPX, 250 nM competing ligand. As for the experimental part: . […] Non-specific binding was determined as described under “MS binding displacement assays.”

For assay [7], the target named is T1, hA1AR. Also noted: expressed in transfected cells; host or cells: CHO cells stably expressing hA1AR (membrane preparation); gift from Prof; S. Hill, University of Nottingham; method as in PMID 23093571. Conditions: competition association, apparent value; cited from earlier work.
The target of assay [8] is T2, hA2AAR (Homo sapiens, UniProt P29274).
T2 construct: expressed in transfected cells; host or cells: HEK293 cells stably expressing hA2AAR (membrane preparation); gift from Dr. J. Wang, Biogen/IDEC
T2 sequence (P29274 whole entry): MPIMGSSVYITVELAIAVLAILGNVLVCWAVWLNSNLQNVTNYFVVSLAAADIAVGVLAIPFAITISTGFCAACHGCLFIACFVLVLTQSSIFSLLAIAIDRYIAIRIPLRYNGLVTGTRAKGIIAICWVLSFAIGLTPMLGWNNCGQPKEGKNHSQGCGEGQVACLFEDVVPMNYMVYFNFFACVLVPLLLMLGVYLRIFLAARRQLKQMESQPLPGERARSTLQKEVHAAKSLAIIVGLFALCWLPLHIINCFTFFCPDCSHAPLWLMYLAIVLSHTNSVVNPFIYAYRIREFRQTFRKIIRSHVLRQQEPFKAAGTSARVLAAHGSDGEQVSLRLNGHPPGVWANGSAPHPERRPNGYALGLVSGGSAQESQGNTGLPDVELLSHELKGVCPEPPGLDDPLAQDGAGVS
Nature of the assay: Radioligand binding displacement assay. As to conditions: newly acquired, read-out: K i ± SEM, Radioligand binding. The protocol: as §1, §2

Assay [9] deals with T2, hA2AAR. Nature of the assay: MS binding displacement assay (marker ligand ZM-241,385). As to conditions: 3 nM ZM-241,385 marker, read-out: K i ± SEM, MS binding.
Protocol: as §3
Assay [10] has as its target T2, hA2AAR. In words: MS binding competition association assay (marker ligand ZM-241,385).
Assay [11] deals with T2, hA2AAR. Nature of the assay: Radioligand binding competition association assay. As to conditions: newly acquired. As for the experimental part: as §1, §2
[12] abbreviates: competition association with 3 nM ZM-241,385, with internal standard.
Setting [13] is: competition association with 3 nM ZM-241,385, without internal standard.

Several values for one entry are separate records, joined by “and”; a condition that tells them apart may be missing. Equal values may be shown once.

`CCCn1c(=O)c2[nH]c(C3CCCC3)nc2n(CCC)c1=O` [DPCPX, 1,3-dipropyl-8-cyclopentyl-xanthine]: on hA1AR [1], the “B max, Radioligand binding” value is 14 ± 1 pmol/mg protein and 14 ± 1 [29] pmol/mg protein. Besides, the “B max, MS binding” value on hA1AR [2] is given as 17.3 ± 0.3 pmol/mg protein.
On to `Cn1c(=O)c2[nH]c(C3CCCC3)nc2n(C)c1=O` [8-CPT, 8-Cyclopentyltheophylline], for which the values for the Ki on hA1AR [3] and on hA1AR [5] were 43 ± 11 nM and 31 ± 1 nM, respectively. The koff is 0.0183 s⁻¹ on hA1AR [4] (read-out: k off ± SEM, Radioligand binding (converted)); 0.0233 s⁻¹ at hA1AR [6] (read-out: k off ± SEM, MS binding (M/IS) (converted)); 0.02 s⁻¹ at hA1AR [6] (read-out: k off ± SEM, MS binding (marker) (converted)). Besides, the kon on hA1AR [4] (read-out: k on ± SEM, Radioligand binding (converted)) is 1e+06 M⁻¹ s⁻¹; on hA1AR [6] (read-out: k on ± SEM, MS binding (M/IS) (converted)), 833000 M⁻¹ s⁻¹; on hA1AR [6] (read-out: k on ± SEM, MS binding (marker) (converted)), 500000 M⁻¹ s⁻¹. In addition, the “shape of competition association curve” value on hA1AR [6] (hA1AR) is “typical for fast-dissociating ligands”.
With `CCCn1c(=O)c2[nH]c(C3CCCC3)nc2n(CCCOC(=O)c2ccc(S(=O)(=O)F)cc2)c1=O` [FSCPX], the “k on ± SEM, Radioligand binding” value on hA1AR [7] is 3.7 ± 1.0 × 10^6 [29] M^−1 min^−1. Moreover, on hA1AR [6] (hA1AR), the “shape of competition association curve” value is reported as “typical for slowly dissociating ligands”. Further, on hA1AR [6] (hA1AR, 250 nM FSCPX, after 120 min), the “displacement of the marker ligand DPCPX” value is given as “completely”. The “k on ± SEM, MS binding (M/IS)” value at hA1AR [6] (hA1AR, competition association with 6 nM DPCPX, with internal standard, apparent value for covalently binding FSCPX) is on record as 0.7 ± 0.2 × 10^6 M^−1 min^−1. Besides, on hA1AR [6] (hA1AR, competition association with 6 nM DPCPX, without internal standard, apparent value for FSCPX), the “k on ± SEM, MS binding (marker)” value is reported as 0.7 ± 0.2 × 10^6 M^−1 min^−1.
For `C#CCn1c(=O)c2c(nc(C=Cc3cccc(OC)c3)n2C)n(CCCO)c1=O` [MSX-2, 3-(3-Hydroxypropyl)-7-methyl-1-propargyl-8-(m-methoxystryryl)xanthine], the Ki at hA2AAR [8] amounted to 5.7 ± 0.1 nM. For the same molecule, at hA2AAR [9], the Ki stood at 9 ± 0.3 nM. Besides, on hA2AAR [10] (3 nM ZM-241,385, 90 nM MSX-2 or 15 nM LUF6632), the “shape of competition association curve” value is given as “typical for fast-dissociating ligands”. Besides, at hA2AAR [10] (setting [12]), the “k off ± SEM, MS binding (M/IS)” value came to 0.00045 ± 8.3e-05 s⁻¹ and the “k on ± SEM, MS binding (M/IS)” value was 5.4 ± 0.6 × 10^6 M^−1 min^-1. In addition, at hA2AAR [10] (setting [13]), the “k off ± SEM, MS binding (marker)” value is 0.00105 ± 0.000367 s⁻¹ and the “k on ± SEM, MS binding (marker)” value is 9.3 ± 1.3 × 10^6 M^−1 min^-1. Also, on hA2AAR [11], the “k off ± SEM, Radioligand binding” value was found to be 0.000433 ± 6.7e-05 s⁻¹ and the “k on ± SEM, Radioligand binding” value is given as 2.4 ± 0.2 × 10^6 M^−1 min^-1.
